Source: US20190167771A1, “CONTROL ANGIOGENESIS BY REGULATING PHOSPHORYLATION OF SERYL-tRNA SYNTHETASE (SerRS)” (The Scripps Research Institute, priority 2016, published 2019)

Test system: MDA-MB-231 cells
Test: MDA-MB-231 tumor xenograft model, tumor angiogenesis and growth
Type: in vivo, mouse
Details: for tumor angiogenesis (CD31 staining): MDA-MB-231 stably transfected with human SerRS gene (~10-fold overexpression), NSG mice, two weeks
Description: In FIG. 5A, human breast cancer cells MDA-MB-231 were stably transfected with human wild type (SerRS^WT) and mutant SerRS (SerRS^AA, SerRS^DD). The expression of SerRS was monitored by immunoblot. In FIGS. 5B-C, the engineered MDA-MB-231 cells (10^6 per mouse) were implanted into mouse fat pad in mammal glands to form tumor xenografts. 14 days later, tumor xenografts were excised and subjected to immunohistochemistry for CD31 (FIG. 5B) and subsequent quantification of blood vessels (FIG. 5C) (n=5-6). In FIGS. 5D-F, MDA-MB-231 cells (10^6 per mouse) stably transfected with SerRS^WT, SerRS^AA, HIF1-specific shRNA (HIF^KD), both SerRS^AA and HIF^KD or empty vector were implanted into mouse fat pad in mammal glands. The sizes of the tumor xenografts were measured until the mice were sacrificed on 35 days (FIG. 5D) and the tumor angiogenesis was measured by immunohistochemistry for CD31 (FIG. 5E) and VEGFA (FIG. 5F) (n=4-10). Scale bars represent 100 μm.
[…] MDA-MB-231 cells stably transfected with vectors expressing wild type human SerRS, SerRS^S101A/S241A, or SerRS^S101D/S241D were subcutaneously injected into the mammal glands of 6-8-week-old female NOD.Cg-Prkdc^scidIl2rg^tmJWjl/SzJ mice (six mice in each group) (Jackson Laboratory). 14 days after injection, the tumor xenograft were separated from mice and frozen in Tissue-Tek® OCT compound for cryostat sectioning.
5-μm sections from freshly frozen tumor xenograft and matrigel plugs were treated with acetone and 3% H2O2 to block endogenous peroxidase. After 3-5 times wash and goat serum block, the sections were incubated with an anti-CD31 antibody (1:3000; Cell Signaling Technology) overnight at 4° C. The blood vessels were counted in 5-10 random viable fields (120×) in tumor xenograft samples and microvessel density in matrigel plugs was quantified by measuring the CD31 staining density using Image J software. To detect the hypoxia, we incubated the slides with anti-HIF1α antibody (1:100; Novus Biologicals).
This example describes experiments studying the activity of SerRS^S101A/S241A and the effect of SerRS phosphorylation in hypoxia-induced angiogenesis in mammal.
Because hypoxia-induced angiogenesis is critical for solid tumor growth, experiments were performed to determine if hypoxia-induced SerRS phosphorylation/inactivation is important for tumor angiogenesis. Human breast cancer cells MDA-MB-231 were stably transfected with human SerRS^WT, SerRS^S101A/S241A, or SerRS^S101D/S241D gene to give high levels of overexpression (˜10-fold) compare to that of the endogenous protein (FIG. 4D). The engineered cells were implanted subcutaneously into the mammal glands of immune deficient NOD scid gamma (NSG) mice. Two weeks later, the vasculature in the tumor xenografts were examined by CD31 staining (FIGS. 4E and 4F). […]

Substance	tumor angiogenesis (CD31 staining)	angiogenesis and tumor growth compared with HIF-1 knockdown (murine model of triple negative human breast cancer, overexpression)
SerRS^WT: wildtype human seryl-tRNA synthetase protein, SEQ ID NO: 1 (mouse wild type used in the 3B11 matrigel assay)	suppressed tumor angiogenesis	
SerRS^S101D/S241D: SerRS with double substitutions of S101 and S241 with aspartic acid, mimics the phosphorylated SerRS	strong activity in promoting tumor angiogenesis	
SerRS^S101A/S241A: phosphorylation-deficient human SerRS double mutant, serine 101 and 241 to alanine, SEQ ID NO: 4 (mouse version in matrigel assay)	much stronger inhibition of angiogenesis compared to SerRS^WT	suppress angiogenesis and tumor growth much more robustly than the knockdown of HIF-1
